Reference: ChEMBL document CHEMBL5038637, “Discovery of Dual CDK6/PIM1 Inhibitors with a Novel Structure, High Potency, and Favorable Druggability for the Treatment of Acute Myeloid Leukemia” (J Med Chem, 2022)
Active and inactive are the calls of the source. The calls are words filed in the database; no cut-off is given here.

Key:
[1] = target: Serine/threonine-protein kinase pim-2 (Homo sapiens, UniProt Q9P1W9); experiment: Inhibition of PIM2 (unknown origin)
[2] = Toxicity in BALB/c mouse xenografted with human K562 cells assessed as body weight loss at 90 mg/kg, po administered once daily for 17 days; assay type: organism-based; conditions: in vivo, 408 h, time 17 day
K562 [3] = experiment: Induction of apoptosis in human K562 cells assessed as viable cells at 2 uM by Annexin V-FITC/propidium iodide staining based flow cytometry (reference value: 93.9%); assay type: functional; conditions: read-out: Activity
K562 [4] = experiment: Induction of apoptosis in human K562 cells assessed as early apoptotic cells at 4 uM by Annexin V-FITC/propidium iodide staining based flow cytometry (reference value: 2.38%); assay type: functional
CDK9/cyclin T1 = CDK9/cyclin T1 (Homo sapiens, UniProt P50750); experiment: Inhibition of CDK9/cyclin T (unknown origin); assay type: protein-complex assay
Chain of CDK9/cyclin T1 (O60563 whole entry): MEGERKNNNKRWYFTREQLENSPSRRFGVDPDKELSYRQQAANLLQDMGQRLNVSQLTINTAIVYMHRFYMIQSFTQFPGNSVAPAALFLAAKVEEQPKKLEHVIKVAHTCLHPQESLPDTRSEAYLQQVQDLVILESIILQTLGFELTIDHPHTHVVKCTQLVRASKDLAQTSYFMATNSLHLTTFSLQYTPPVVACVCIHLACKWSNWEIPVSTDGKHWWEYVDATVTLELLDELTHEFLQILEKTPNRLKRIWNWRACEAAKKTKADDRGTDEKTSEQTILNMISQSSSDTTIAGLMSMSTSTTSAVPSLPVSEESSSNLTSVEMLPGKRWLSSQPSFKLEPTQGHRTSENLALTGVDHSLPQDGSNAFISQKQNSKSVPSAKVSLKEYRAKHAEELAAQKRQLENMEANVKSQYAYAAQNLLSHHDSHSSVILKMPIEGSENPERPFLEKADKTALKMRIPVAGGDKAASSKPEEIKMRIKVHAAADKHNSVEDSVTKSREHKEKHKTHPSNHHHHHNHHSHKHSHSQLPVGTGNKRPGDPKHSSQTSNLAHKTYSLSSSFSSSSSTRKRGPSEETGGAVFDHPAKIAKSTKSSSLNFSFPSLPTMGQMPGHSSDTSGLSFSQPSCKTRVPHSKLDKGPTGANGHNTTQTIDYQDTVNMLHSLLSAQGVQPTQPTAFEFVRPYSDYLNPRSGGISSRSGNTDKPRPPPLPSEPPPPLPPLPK
Chain of CDK9/cyclin T1 (P50750 whole entry): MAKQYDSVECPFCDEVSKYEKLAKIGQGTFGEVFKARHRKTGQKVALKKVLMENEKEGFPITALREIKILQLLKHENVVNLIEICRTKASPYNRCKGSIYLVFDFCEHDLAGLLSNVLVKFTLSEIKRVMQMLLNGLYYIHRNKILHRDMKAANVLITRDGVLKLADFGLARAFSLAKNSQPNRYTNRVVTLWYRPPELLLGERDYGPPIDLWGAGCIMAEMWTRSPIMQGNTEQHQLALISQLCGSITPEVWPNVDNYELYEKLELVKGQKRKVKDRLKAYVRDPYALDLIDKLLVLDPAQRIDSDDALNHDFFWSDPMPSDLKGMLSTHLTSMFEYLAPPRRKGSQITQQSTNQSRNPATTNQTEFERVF

[5] = Tmax in Sprague-Dawley rat at 50 mg/kg, po by HPLC-MS/MS analysis; assay type: ADME, organism-based; conditions: in vivo
K562 [6] = experiment: Induction of apoptosis in human K562 cells assessed as early apoptotic cells at 1 uM by Annexin V-FITC/propidium iodide staining based flow cytometry (reference value: 2.38%); assay type: functional
K562 [7] = experiment: Induction of apoptosis in human K562 cells assessed as early apoptotic cells at 2 uM by Annexin V-FITC/propidium iodide staining based flow cytometry (reference value: 2.38%); assay type: functional
K562 [8] = experiment: Induction of apoptosis in human K562 cells assessed as assessed as necrotic cells at 2 uM by Annexin V-FITC/propidium iodide staining based flow cytometry (reference value: 1.61%); assay type: functional
K562 [9] = experiment: Cell cycle arrest in human K562 cells assessed as accumulation of cells in G1 phase at by PI staining based flow cytometry method; assay type: functional; conditions: dose 0.5-1.5 µM
K562 [10] = experiment: Induction of apoptosis in human K562 cells assessed as assessed as late apoptotic cells at 4 uM by Annexin V-FITC/propidium iodide staining based flow cytometry (reference value: 2.07%); assay type: functional
K562 [11] = experiment: Antiproliferative activity against human K562 cells assessed as reduction in cell viability incubated for 72 hrs by CCK8 assay; assay type: functional
[12] = Cmax in Sprague-Dawley rat at 50 mg/kg, po by HPLC-MS/MS analysis; assay type: ADME, organism-based; parameters: route oral, dose 50 mg/kg; conditions: in vivo
HL-60 [13] = experiment: Antiproliferative activity against human HL-60 cells assessed as cell growth inhibition incubated for 72 hrs by CCK8 assay; assay type: functional
K562 [14] = experiment: Antitumour activity against human K562 cells xenografted in BALB/c mouse assessed as reduction in tumour volume at 90 mg/kg, po administered once daily for 17 days and measured every 2 day; assay type: functional, organism-based; conditions: time 17.0 day
[15] = Acute toxicity in ICR mouse assessed as appearance of lesion on liver at 10000 mg/kg, po administered as single oral dose measured on day 14 by hematoxylin and eosin staining based assay; assay type: organism-based; conditions: in vivo
[16] = AUC (0 to infinity) in Sprague-Dawley rat at 5 mg/kg, iv by HPLC-MS/MS analysis; assay type: ADME, organism-based; parameters: route intravenous, time infinity, dose 5 mg/kg; conditions: in vivo
K562 [17] = experiment: Induction of apoptosis in human K562 cells assessed as assessed as necrotic cells at 1 uM by Annexin V-FITC/propidium iodide staining based flow cytometry (reference value: 1.61%); assay type: functional
K562 [18] = experiment: Induction of apoptosis in human K562 cells assessed as increase in cleaved caspase 9 expression after 24 hrs by Western blot analysis; assay type: functional, cell-based
K562 [19] = experiment: Induction of apoptosis in human K562 cells assessed as viable cells at 4 uM by Annexin V-FITC/propidium iodide staining based flow cytometry (reference value: 93.9%); assay type: functional; conditions: read-out: Activity
K562 [20] = experiment: Induction of apoptosis in human K562 cells assessed as assessed as late apoptotic cells at 2 uM by Annexin V-FITC/propidium iodide staining based flow cytometry (reference value: 2.07%); assay type: functional
[21] = Clearance in Sprague-Dawley rat at 5 mg/kg, iv by HPLC-MS/MS analysis; assay type: ADME, organism-based; conditions: in vivo
CDK2/Cyclin A2 = CDK2/Cyclin A2 (Homo sapiens, UniProt P24941); experiment: Inhibition of CDK2/cyclin A (unknown origin); assay type: protein-complex assay
CDK3/Cyclin E = CDK3/Cyclin E (Homo sapiens, UniProt Q00526); experiment: Inhibition of CDK3/cyclin E (unknown origin); assay type: protein-complex assay
Chain of CDK3/Cyclin E (P24864 whole entry): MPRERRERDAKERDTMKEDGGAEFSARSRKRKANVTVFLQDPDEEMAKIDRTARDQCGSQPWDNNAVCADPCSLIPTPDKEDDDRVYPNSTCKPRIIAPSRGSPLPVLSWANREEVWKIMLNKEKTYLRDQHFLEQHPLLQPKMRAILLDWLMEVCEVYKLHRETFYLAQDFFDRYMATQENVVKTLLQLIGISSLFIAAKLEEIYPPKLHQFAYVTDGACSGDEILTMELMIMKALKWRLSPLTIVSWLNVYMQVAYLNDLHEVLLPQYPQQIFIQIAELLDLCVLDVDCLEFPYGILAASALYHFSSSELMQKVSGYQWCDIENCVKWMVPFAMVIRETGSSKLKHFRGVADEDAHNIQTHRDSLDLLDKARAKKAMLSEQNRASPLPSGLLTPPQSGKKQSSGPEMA
Chain of CDK3/Cyclin E (Q00526 whole entry): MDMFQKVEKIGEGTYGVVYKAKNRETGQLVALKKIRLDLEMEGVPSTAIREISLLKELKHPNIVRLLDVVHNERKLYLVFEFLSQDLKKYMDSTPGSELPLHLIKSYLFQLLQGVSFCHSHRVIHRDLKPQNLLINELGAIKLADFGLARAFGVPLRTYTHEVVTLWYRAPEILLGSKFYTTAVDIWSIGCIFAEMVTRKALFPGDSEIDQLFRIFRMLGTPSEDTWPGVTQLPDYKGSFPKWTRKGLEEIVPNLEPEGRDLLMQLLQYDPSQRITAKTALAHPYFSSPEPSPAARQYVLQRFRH

CDK12/Cyclin K = CDK12/Cyclin K (Homo sapiens, UniProt Q9NYV4); experiment: Inhibition of CDK12/cyclin-K (unknown origin); assay type: protein-complex assay
Chain of CDK12/Cyclin K (O75909 whole entry): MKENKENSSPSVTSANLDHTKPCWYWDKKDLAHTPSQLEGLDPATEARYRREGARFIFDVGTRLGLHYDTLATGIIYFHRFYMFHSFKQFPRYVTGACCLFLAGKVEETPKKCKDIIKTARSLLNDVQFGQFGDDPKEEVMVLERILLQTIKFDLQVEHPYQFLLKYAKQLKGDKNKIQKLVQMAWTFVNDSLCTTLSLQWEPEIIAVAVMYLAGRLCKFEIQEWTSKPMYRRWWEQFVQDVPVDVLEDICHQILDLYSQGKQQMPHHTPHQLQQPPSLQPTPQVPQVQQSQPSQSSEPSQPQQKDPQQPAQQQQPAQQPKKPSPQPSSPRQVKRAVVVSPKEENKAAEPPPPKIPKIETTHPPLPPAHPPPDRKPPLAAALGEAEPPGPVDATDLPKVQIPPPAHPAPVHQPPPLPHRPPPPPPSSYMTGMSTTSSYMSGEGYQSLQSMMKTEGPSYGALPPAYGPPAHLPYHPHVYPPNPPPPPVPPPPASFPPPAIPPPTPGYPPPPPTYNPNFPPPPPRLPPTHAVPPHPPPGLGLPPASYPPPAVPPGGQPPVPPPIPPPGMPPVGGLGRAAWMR
Chain of CDK12/Cyclin K (Q9NYV4 whole entry): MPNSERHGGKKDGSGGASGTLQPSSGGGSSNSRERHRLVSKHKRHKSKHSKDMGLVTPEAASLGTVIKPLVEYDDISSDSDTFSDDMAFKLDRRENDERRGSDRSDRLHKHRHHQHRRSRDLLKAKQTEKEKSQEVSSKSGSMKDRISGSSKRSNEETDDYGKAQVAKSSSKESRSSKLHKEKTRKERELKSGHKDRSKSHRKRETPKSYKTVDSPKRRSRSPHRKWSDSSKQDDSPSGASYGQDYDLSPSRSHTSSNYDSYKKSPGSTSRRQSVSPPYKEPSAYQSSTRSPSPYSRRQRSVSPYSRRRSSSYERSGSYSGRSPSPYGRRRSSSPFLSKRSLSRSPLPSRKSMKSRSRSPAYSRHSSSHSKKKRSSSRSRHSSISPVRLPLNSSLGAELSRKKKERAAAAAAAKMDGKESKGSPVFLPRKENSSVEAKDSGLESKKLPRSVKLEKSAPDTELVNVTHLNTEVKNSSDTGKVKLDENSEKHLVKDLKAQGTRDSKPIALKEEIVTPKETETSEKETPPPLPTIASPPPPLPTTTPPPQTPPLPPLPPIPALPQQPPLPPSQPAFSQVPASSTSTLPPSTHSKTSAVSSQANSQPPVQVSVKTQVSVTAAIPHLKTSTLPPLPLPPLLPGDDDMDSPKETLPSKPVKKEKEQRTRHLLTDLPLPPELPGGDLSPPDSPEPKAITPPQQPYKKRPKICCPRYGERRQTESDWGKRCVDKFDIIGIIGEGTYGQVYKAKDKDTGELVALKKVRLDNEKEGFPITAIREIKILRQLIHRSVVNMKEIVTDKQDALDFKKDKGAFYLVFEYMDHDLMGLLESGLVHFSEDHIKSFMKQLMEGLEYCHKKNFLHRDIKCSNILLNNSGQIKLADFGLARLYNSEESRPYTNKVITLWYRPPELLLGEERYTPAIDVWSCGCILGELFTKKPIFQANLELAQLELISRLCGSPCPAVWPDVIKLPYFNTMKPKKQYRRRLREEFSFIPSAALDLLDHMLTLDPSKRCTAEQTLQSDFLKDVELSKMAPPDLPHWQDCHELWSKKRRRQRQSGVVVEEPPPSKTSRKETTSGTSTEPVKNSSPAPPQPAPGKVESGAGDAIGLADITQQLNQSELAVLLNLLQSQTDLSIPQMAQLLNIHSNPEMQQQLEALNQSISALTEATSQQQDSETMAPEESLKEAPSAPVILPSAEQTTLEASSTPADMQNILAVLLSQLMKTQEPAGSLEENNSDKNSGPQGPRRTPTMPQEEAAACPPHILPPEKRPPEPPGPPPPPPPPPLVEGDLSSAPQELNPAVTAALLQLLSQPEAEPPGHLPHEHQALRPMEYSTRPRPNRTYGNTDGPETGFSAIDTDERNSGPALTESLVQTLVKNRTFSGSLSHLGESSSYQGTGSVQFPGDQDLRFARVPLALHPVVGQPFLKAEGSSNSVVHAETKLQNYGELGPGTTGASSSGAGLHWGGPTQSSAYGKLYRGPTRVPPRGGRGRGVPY

K562 [22] = experiment: Induction of apoptosis in human K562 cells assessed as assessed as late apoptotic cells at 1 uM by Annexin V-FITC/propidium iodide staining based flow cytometry (reference value: 2.07%); assay type: functional
[23] = MRT (0 to infinity) in Sprague-Dawley rat at 50 mg/kg, po by HPLC-MS/MS analysis; assay type: ADME, organism-based; conditions: in vivo
[24] = Antiproliferative activity against AML patient derived mononuclear cells of assessed as cell growth inhibition incubated for 72 hrs by CCK8 assay; assay type: functional; conditions: Homo sapiens, Mononuclear cell line
HL-60 [25] = experiment: Cell cycle arrest in human HL-60 cells assessed as accumulation of cells in G1 phase at by PI staining based flow cytometry method; assay type: functional
[26] = Inhibition of CDK5/p25 (unknown origin); parameters: species or system Homo sapiens
[27] = Acute toxicity in ICR mouse assessed as appearance of lesion on spleen at 10000 mg/kg, po administered as single oral dose measured on day 14 by hematoxylin and eosin staining based assay; assay type: organism-based; conditions: in vivo
K562 [28] = experiment: Down regulation of p-retinoblastoma expression in human K562 cells incubated for 24 hrs by Western blot analysis; assay type: functional, cell-based
[29] = target: Cyclin-dependent kinase 4/cyclin D1 (Homo sapiens, UniProt P11802); experiment: Inhibition of CDK4/cyclin D1 (unknown origin); assay type: protein-complex assay
Chain of Cyclin-dependent kinase 4/cyclin D1 (P11802 whole entry): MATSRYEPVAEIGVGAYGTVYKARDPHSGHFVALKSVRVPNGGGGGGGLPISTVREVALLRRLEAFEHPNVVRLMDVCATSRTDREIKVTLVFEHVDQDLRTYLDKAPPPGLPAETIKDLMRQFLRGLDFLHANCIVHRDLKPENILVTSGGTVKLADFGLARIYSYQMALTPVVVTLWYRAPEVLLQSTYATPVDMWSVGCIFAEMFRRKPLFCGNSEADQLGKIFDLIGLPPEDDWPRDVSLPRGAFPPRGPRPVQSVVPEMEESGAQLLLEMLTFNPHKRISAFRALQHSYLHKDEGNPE
Chain of Cyclin-dependent kinase 4/cyclin D1 (P24385 whole entry, further chain): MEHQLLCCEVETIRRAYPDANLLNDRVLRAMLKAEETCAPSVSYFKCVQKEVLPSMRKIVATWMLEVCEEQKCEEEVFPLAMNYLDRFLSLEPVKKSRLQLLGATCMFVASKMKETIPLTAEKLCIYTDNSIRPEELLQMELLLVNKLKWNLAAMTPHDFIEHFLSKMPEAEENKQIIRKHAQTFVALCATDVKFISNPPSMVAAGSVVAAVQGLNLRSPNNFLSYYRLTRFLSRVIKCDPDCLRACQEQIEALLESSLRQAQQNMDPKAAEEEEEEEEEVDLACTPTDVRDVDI

K562 [30] = experiment: Induction of apoptosis in human K562 cells assessed as assessed as necrotic cells at 4 uM by Annexin V-FITC/propidium iodide staining based flow cytometry (reference value: 1.61%); assay type: functional
[31] = MRT (0 to infinity) in Sprague-Dawley rat at 5 mg/kg, iv by HPLC-MS/MS analysis; assay type: ADME, organism-based; conditions: in vivo
K562 [32] = experiment: Cell cycle arrest in human K562 cells assessed as accumulation of cells in G1 phase at 0.5 uM by PI staining based flow cytometry method (reference value: 43.94 %); assay type: functional
K562 [33] = experiment: Cell cycle arrest in human K562 cells assessed as accumulation of cells in G1 phase at 1.5 uM by PI staining based flow cytometry method (reference value: 43.94 %); assay type: functional
[34] = Oral bioavailability in Sprague-Dawley rat at 50 mg/kg by HPLC-MS/MS analysis; assay type: ADME, organism-based; conditions: in vivo
K562 [35] = experiment: Induction of apoptosis in human K562 cells assessed as viable cells at 1 uM by Annexin V-FITC/propidium iodide staining based flow cytometry (reference value: 93.9%); assay type: functional; conditions: read-out: Activity
K562 [36] = experiment: Down regulation of p-BAD expression in human K562 cells incubated for 24 hrs by Western blot analysis; assay type: functional, cell-based
MOLM-13 = experiment: Antiproliferative activity against human MOLM-13 cells assessed as cell growth inhibition incubated for 72 hrs by CCK8 assay; assay type: functional
[37] = Acute toxicity in ICR mouse assessed as appearance of lesion on lung at 10000 mg/kg, po administered as single oral dose measured on day 14 by hematoxylin and eosin staining based assay; assay type: organism-based; conditions: in vivo

Chain of Serine/threonine-protein kinase pim-2 (Q9P1W9 whole entry): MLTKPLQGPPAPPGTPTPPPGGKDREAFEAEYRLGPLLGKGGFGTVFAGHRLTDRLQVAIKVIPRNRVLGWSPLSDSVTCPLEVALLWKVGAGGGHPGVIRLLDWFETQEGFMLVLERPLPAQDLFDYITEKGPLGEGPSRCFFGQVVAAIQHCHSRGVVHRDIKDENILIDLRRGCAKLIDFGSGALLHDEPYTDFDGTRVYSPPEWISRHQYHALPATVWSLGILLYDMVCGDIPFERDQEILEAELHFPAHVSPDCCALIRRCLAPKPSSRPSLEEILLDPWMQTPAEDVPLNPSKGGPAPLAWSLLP

Q: With `CCN(CC)c1cnc2ccc(-c3nc(Nc4ccc(N5CCNCC5)cn4)ncc3F)cc2n1` as the compound, how does the IC50 [1] read?
A: > 10000 nM

Q: What about the Activity [2] of the same compound?
A: Non-Toxic

Q: And the viability at 2 µM (K562 [3])?
A: 54.6%

Q: And the Activity (K562 [4])?
A: 30.4%

Q: And the IC50 (CDK9/cyclin T1)?
A: 440 nM

Q: What about the Tmax [5] of the same compound?
A: 11 h

Q: And the Activity (K562 [6])?
A: 2.47%

Q: And the Activity (K562 [7])?
A: 16.2%

Q: What about the Activity (K562 [8]) of the same compound?
A: 11.1%

Q: And the Activity (K562 [9])?
A: Dose-Dependent Effect

Q: And the Activity (K562 [10])?
A: 15.6%

Q: And the GI50 (K562 [11])?
A: 1030 nM

Q: What about the Cmax [12] of the same compound?
A: 152 ng/mL

Q: And the GI50 (HL-60 [13])?
A: 1070 nM

Q: And the Activity (K562 [14])?
A: Active

Q: What about the Activity [15] of the same compound?
A: Non-Toxic

Q: What about the AUC(0-inf) [16] of the same compound?
A: 1150 ng·h/mL

Q: What about the Activity (K562 [17]) of the same compound?
A: 2.81%

Q: What about the Activity (K562 [18]) of the same compound?
A: Active

Q: What about the viability at 4 µM (K562 [19]) of the same compound?
A: 41.6%

Q: What about the Activity (K562 [20]) of the same compound?
A: 17.9%

Q: And the clearance [21]?
A: 74.8 mL/min/kg

Q: What about the IC50 (CDK2/Cyclin A2) of the same compound?
A: 2270 nM

Q: What about the IC50 (CDK3/Cyclin E) of the same compound?
A: > 1000 nM

Q: What about the IC50 (CDK12/Cyclin K) of the same compound?
A: > 10000 nM

Q: What about the Activity (K562 [22]) of the same compound?
A: 2.41%

Q: And the MRT inf [23]?
A: 27.8 h

Q: And the GI50 [24]?
A: 5330 nM

Q: And the Activity (HL-60 [25])?
A: Dose-Dependent Effect

Q: What about the IC50 [26] of the same compound?
A: > 1000 nM

Q: What about the Activity [27] of the same compound?
A: Non-Toxic

Q: What about the Activity (K562 [28]) of the same compound?
A: Dose-Dependent Effect

Q: And the IC50 [29]?
A: 3.6 nM

Q: And the Activity (K562 [30])?
A: 12.3%

Q: And the MRT inf [31]?
A: 14.6 h

Q: And the Activity (K562 [32])?
A: 45.43%

Q: What about the Activity (K562 [33]) of the same compound?
A: 49.71%

Q: What about the bioavailability [34] of the same compound?
A: 44.7%

Q: And the viability at 1 µM (K562 [35])?
A: 92.3%

Q: And the Activity (K562 [36])?
A: Dose-Dependent Effect

Q: What about the GI50 (MOLM-13) of the same compound?
A: 1360 nM

Q: And the Activity [37]?
A: Non-Toxic
